The source of these data is patent US20050171192A1, “Use of histamine to treat bone disease” (priority 2003, published 2005).

Structures are written as SMILES. Read-outs that look alike come from different tables or passages of the source.

Assay [1] deals with membrane bound oxidase of stimulated phagocytes (Homo sapiens, UniProt P04839). Conditions: substrate of the membrane bound oxidase; generally accepted (background); cited from earlier work.
Assay [2] can be described thus: Example 1: inhibition of bone resorption in subjects with bone loss. The note with it: effective dose; Groups 1 through 10 compared to placebo Group 11. The class given is in vivo. Here is the method: Subjects suffering from bone loss exacerbated by osteoclast-produced ROS are identified. The subjects are separated into 11 groups of 10 subjects each. […] Subjects in Group 11 are administered a placebo.

For assay [3] the following is noted: oral 50 mg, 100 mg, 200 mg, 1,000 mg; relative to placebo group. Here is the method: Individual suffering from various types of osteoporosis, including type I and type II osteoporosis, age-related osteoporosis, disuse osteoporosis, diabetes-related osteoporosis, and steroid-related osteoporosis, are identified. The individuals are separated into 5 groups of 20 individuals. Individuals in Groups 1 through 4 are orally administered 50 mg, 100 mg, 200 mg, and 1,000 mg of histamine, respectively. Individuals in […] are administered a placebo. The rate of bone loss is reduced for Groups 1 through 4 relative to the rate of bone loss for the placebo group.

The conditions of assay [4]: oral 125 mg; versus placebo. The method, then: Individuals suffering from bone loss associated with primary and secondary hyperparathyroidism are identified. The individuals are orally administered 125 mg of histamine or a placebo.
Assay [5] can be described thus: Example 7: bone loss associated with cancer treatments (hormone therapy). Type of assay: in vivo. Conditions: oral 100 mg in conjunction with hormone therapy; compared to placebo group. The method, then:
Individuals suffering from cancer and being treated with hormone therapy are identified. The individuals are divided into 11 groups of 10 each. In conjunction with hormone therapy, Groups 1 through 10 are orally administered 100 mg of histamine, histamine agonists, histamine salts, histamine prodrugs, NADPH-oxidase inhibitors, histamine dihydrochloride, histamine phosphate, serotonin, 5HT agonists, or histamine receptor agonists, respectively. Group 11 receives a placebo in conjunction with hormone therapy.

The conditions of assay [6]: oral 75 mg in conjunction with antibiotics; versus antibiotics alone. The method, then: Individuals suffering from osteomyelitis are identified. The individuals are orally administered 75 mg of histamine phosphate in conjunction with antibiotics or antibiotics alone.
The conditions of assay [7]: intravenous 5 mg in conjunction with steroid therapy; compared to steroid therapy alone. Here is the method:
Individuals suffering from bone loss associated with steroid therapy, including treatment with corticosteroids, such as betamethasone, budesonide, cortisone dexamethasone, hydrocortisone, methylprednisolone, prednisolone, prednisone, and triamcinolone, are identified. In conjunction with steroid therapy, the individuals are intravenously administered 5 mg of a ROS scavenger or a placebo.

For the compound `NC(=O)C1=CN([C@@H]2O[C@H](COP(=O)(O)OP(=O)(O)OC[C@H]3O[C@@H](n4cnc5c(N)ncnc54)[C@H](OP(=O)(O)O)[C@@H]3O)[C@@H](O)[C@H]2O)C=CC1` [NADPH], the Km in assay [1] is 45 µM.

`NCCc1c[nH]cn1` [histamine]: in assay [2], the “rate of bone healing” value is reported as “accelerated” and the “rate of bone loss” value is “reduced”. In assay [3], the “rate of bone loss” value was “reduced”. In assay [4], the “rate of bone loss” value is “reduced” and the “trauma to bone cells” value is given as “minimized”. In addition, in assay [5], the bone healing result was “accelerated” and the bone loss result is on record as “inhibited”.

On to `NC(=O)C1=CN([C@@H]2O[C@H](COP(=O)(O)OP(=O)(O)OC[C@H]3O[C@@H](n4cnc5c(N)ncnc54)[C@H](O)[C@@H]3O)[C@@H](O)[C@H]2O)C=CC1` [NADH], for which, in assay [1], the Michaelis constant (Km) was 450 µM.

As to `NCCc1c[nH]c2ccc(O)cc12` [serotonin], in assay [2], the “rate of bone healing” value is given as “accelerated” and the “rate of bone loss” value is reported as “reduced”. Moreover, in assay [5], the bone healing result is “accelerated” and the bone loss result is given as “inhibited”.

Consider `NCCc1c[nH]cn1.O=P(O)(O)O` [histamine phosphate], for which, in assay [2], the “rate of bone healing” value is recorded as “accelerated” and the “rate of bone loss” value was “reduced”. The bone healing result in assay [6] is reported as “accelereated”. In assay [5], the bone healing entry is given as “accelerated” and the bone loss result is reported as “inhibited”.

`Cl.Cl.NCCc1c[nH]cn1` [histamine dihydrochloride]: in assay [2], the “rate of bone healing” value is “accelerated” and the “rate of bone loss” value was “reduced”. In assay [5], the bone healing result is recorded as “accelerated” and the bone loss entry is “inhibited”. Further, in assay [7], the bone loss entry is listed as “reduced”.
